From patent US8653238B2, “Compositions and methods for transport of molecules with enhanced release properties across biological barriers” (The Board of Trustees of the Leland Stanford Junior …, priority 2006, dated 2014) come the findings set out here.

One data set can be described thus: physchem. The settings on record: buffer, pH 7.4.
For the next data set, the system named is FVB-luc+ mice skin. The data set can be described thus: Bioluminescence after topical application to skin of luciferase transgenic mice (Example 7). The format is in vivo.
Data set [1] has as its system transgenic (FVB-luc+) mice. The data set is described as follows: Bioluminescence after intradermal injection into luciferase transgenic mice. The format is in vivo.
Data set [2] deals with PC3M-luc prostate cancer cell line stably transfected with luciferase. The data set is described as follows: Cellular assay for luciferin release from conjugates (Example 6). The format is cell-based. The protocol:
The PC3M-luc prostate tumor cell line (Jenkins et al., Clin. Exp. Metastasis 20:733 (2003)), was plated at 60,000 cells per well in 96 well, flat bottomed plates twelve hours prior to the assay. […] The cells were washed to remove extracellular luciferin or conjugate, resuspended with the appropriate buffer, and the resultant luminescence measured using a charged coupled device camera and Living Image software (IVIS200, Xenogen Corp., Alameda, Calif.) (see Cao et al., Proc. Natl. Acad. Sci. U.S.A. 101:221 (2004)).

The subject of a further data set is OVCA429TP. The data set can be described thus: cells. The protocol:
(§1) FIG. 12 depicts an assay for GI50 (nM) of 429 Ovarian Cancer Lines, 20 min pulse with indicated compounds. The cells were pulsed for 20 min, washed (×2) and incubated for 72 hr in fresh media. For each compound, three bars are depicted, for 429 cells, 429 T cells, and 429 TP cells (from left to right).
(§2) The cells were pulsed with conjugates administered in PBS (pH=7.4) and Taxol (administered in DMSO) for 20 min. Then the solution was removed, the cells were washed twice and incubated in fresh media for 72 hr. The presence of live cells were measured based on the standard MTS assay.

In another data set the test system is OVCA429T. The data set can be described thus: cells. As for the experimental part: as §1, §2
In the next data set the test system is OVCA429. The data set can be described thus: cells. The protocol: as §1, §2
Where [3] appears, read: 429TP cells (Taxol resistant, unknown mechanism), 20 min pulse, 72 hr.
Where [4] appears, read: 429T cells (Taxol resistant, PGP overexpression), 20 min pulse, 72 hr.
[5] abbreviates: 429 cells, 20 min pulse, washed ×2, 72 hr in fresh media, conjugates in PBS pH 7.4, taxol in DMSO.

Values joined by “and” are separate entries in the source; they are usually repeats but may differ in a detail not shown here. Identical values can stand only once. Non-standard residues stand in square brackets, D forms with d. Residues, ends and D or L forms follow the SMILES beside them. *: point of attachment. Paclitaxel(2'-OCO(CH2)3S) = CC(=O)O[C@H]1C(=O)[C@@]2(C)[C@H]([C@H](OC(=O)c3ccccc3)[C@]3(O)C[C@H](OC(=O)[C@H](OC(=O)CCCS*)[C@@H](NC(=O)c4ccccc4)c4ccccc4)C(C)=C1C3(C)C)[C@]1(OC(C)=O)CO[C@@H]1C[C@@H]2O; X1 = O=C(OCCCS*)Oc1ccc2nc(C3=N[C@@H](C(=O)O)CS3)sc2c1

From the text for FVB-luc+ mice skin: For imaging assays to assess skin transport, hair was removed from the animals by clipping with a large hair clipper on the right flank. Subsequently, Nair® (NAIR is a registered trademark of Church & Dwight Co., Inc., Princeton N.J., USA for a depilatory cream) was applied for 90 seconds, wiped off, and the animals were washed well with wet paper towels and dried. Five days were allowed for stratum corneum regrowth before the mice were used for imaging.
Formulations for topical application of conjugates were prepared as follows. […] Luminescence was observed over approximately 60 minutes.
In vivo bioluminescence imaging was carried out as follows. Animals were imaged in a dark chamber using a cooled CCD camera (IVIS100 Xenongen Corp.) as previously described 45 and the data were analyzed using LivingImage software (Xenogen Corp.). Data are expressed as photons/ster radian/sec for each region of interest such that the data are not dependent on camera settings, chamber geometry or integration time.
The most reproducible method to evaluate the relative performance of transporters and linkers was to apply a single drop of a solution of each conjugate to the flank of anesthetized FVB-luc+ mice. The drop was allowed to remain in contact with the skin for the duration of the assay during which luminescence from the animal was monitored. […]
Method for physchem: The stabilities of the conjugates were assayed by measuring their decomposition when incubated in HEPES buffered saline (HBS, pH 7.4) at 37° C. using analytical HPLC. […] At appropriate time points 20 μl of the solutions were removed and analyzed by reverse phase HPLC. The percent decomposition was calculated from the integrated peak areas of the conjugate, the internal standard, and the various decomposition products.

As to `CC(=O)N[C@H](CSSCCOC(=O)Oc1ccc2nc(C3=N[C@@H](C(=O)O)CS3)sc2c1)C(=O)N[C@H](CCCNC(=N)N)C(=O)N[C@H](CCCNC(=N)N)C(=O)N[C@H](CCCNC(=N)N)C(=O)N[C@H](CCCNC(=N)N)C(=O)N[C@H](CCCNC(=N)N)C(=O)N[C@H](CCCNC(=N)N)C(=O)N[C@H](CCCNC(=N)N)C(=O)N[C@H](CCCNC(=N)N)C(N)=O` [5a], the half-life (usually the time needed for the level to fall by half in the phase considered) at 0.8 mg/ml in the data set “physchem” is 3 h.

Take `CC(=O)N[C@H](CSSCCCOC(=O)Oc1ccc2nc(C3=N[C@@H](C(=O)O)CS3)sc2c1)C(=O)N[C@H](CCCNC(=N)N)C(=O)N[C@H](CCCNC(=N)N)C(=O)N[C@H](CCCNC(=N)N)C(=O)N[C@H](CCCNC(=N)N)C(=O)N[C@H](CCCNC(=N)N)C(=O)N[C@H](CCCNC(=N)N)C(=O)N[C@H](CCCNC(=N)N)C(=O)N[C@H](CCCNC(=N)N)C(N)=O` [5b] (Ac-[dC](X1)[dR][dR][dR][dR][dR][dR][dR][dR]-NH2): the “amount of luciferin released in one hour” value in the data set on FVB-luc+ mice skin (15 μL of 5 mM in 75% PEG 400/25% 200 mM NaOAc pH 6.0) came to 3.62e-12 mol. For the same compound, the “cumulative intradermal concentration of luciferin over one hour” value in the data set with FVB-luc+ mice skin (15 μL of 5 mM in 75% PEG 400/25% 200 mM NaOAc pH 6.0, skin thickness 0.69 mm) stood at 47 nM. For the same compound, the “time over which signal increases after injection” value in data set [1] (intradermal injection) was determined as 20 min. In addition, in data set [1] (intradermal injection of 100 uL of 200 nM in HBS pH 7.4, two different animals), the “area under the curve of bioluminescence” value was 2.54 ×10^10 photons and 2.01 ×10^10 photons. In addition, in data set [1] (intradermal injection, photons emitted in 60 minutes × 400 molecules per photon), the “theoretical amount of luciferin in the injected sample accounted for” value is on record as “Approximately 80%”. The “time for luminescent signal to reach background” value in data set [2] (1 minute pulse, HBS pH 7.4) is recorded as “approximately 1000 seconds”. In “physchem”, this compound gave a half-life at 0.8 mg/ml of 11 h.

On to `CC(=O)N[C@H](CSSCCCC(=O)O[C@@H](C(=O)O[C@H]1C[C@@]2(O)[C@@H](OC(=O)c3ccccc3)[C@@H]3[C@]4(OC(C)=O)CO[C@@H]4C[C@H](O)[C@@]3(C)C(=O)[C@H](OC(C)=O)C(=C1C)C2(C)C)[C@@H](NC(=O)c1ccccc1)c1ccccc1)C(=O)N[C@H](CCCNC(=N)N)C(=O)N[C@H](CCCNC(=N)N)C(=O)N[C@H](CCCNC(=N)N)C(=O)N[C@H](CCCNC(=N)N)C(=O)N[C@H](CCCNC(=N)N)C(=O)N[C@H](CCCNC(=N)N)C(=O)N[C@H](CCCNC(=N)N)C(=O)N[C@H](CCCNC(=N)N)C(N)=O` [Compound 62, Taxol C2′ Octaarginine Conjugate 62] (Ac-[dC](Paclitaxel(2'-OCO(CH2)3S))[dR][dR][dR][dR][dR][dR][dR][dR]-NH2), for which the 50% growth inhibitory concentration (GI50) – broadly, the concentration that inhibits growth by half – with OVCA429TP (setting [3]) turned out to be 101 nM; with OVCA429T (setting [4]) it was 420 nM; in the data set with OVCA429 (setting [5]) it was 12 nM.

`CC(=O)N[C@H](CSSCCCC(=O)O[C@H]1C[C@H]2OC[C@@]2(OC(C)=O)[C@H]2[C@H](OC(=O)c3ccccc3)[C@]3(O)C[C@H](OC(=O)[C@H](O)[C@@H](NC(=O)c4ccccc4)c4ccccc4)C(C)=C([C@@H](OC(C)=O)C(=O)[C@]12C)C3(C)C)C(=O)N[C@H](CCCNC(=N)N)C(=O)N[C@H](CCCNC(=N)N)C(=O)N[C@H](CCCNC(=N)N)C(=O)N[C@H](CCCNC(=N)N)C(=O)N[C@H](CCCNC(=N)N)C(=O)N[C@H](CCCNC(=N)N)C(=O)N[C@H](CCCNC(=N)N)C(=O)N[C@H](CCCNC(=N)N)C(N)=O` [Compound 67, Taxol C7 Octaarginine Conjugate 67]: the results for the GI50 in the data set on OVCA429TP (setting [3]), in the data set on OVCA429T (setting [4]) and in the data set on OVCA429 (setting [5]) were 93 nM, 225 nM and 125 nM, respectively.

For `O=C(O)[C@H]1CSC(c2nc3ccc(O)cc3s2)=N1` [luciferin, reference compound], in data set [1] (mouse, in vivo), the “area under the curve relative to 200 nM dose” value was 10.24%. The “area under the curve of bioluminescence” value in data set [1] (mouse, in vivo, pH 7.4) was 3.02×10^10 photons and 3.11×10^9 photons. For the same compound, the “change of luminescence in K+HBS” value in data set [2] (K+HBS versus HBS, 25 μM luciferin) is reported as “increased slightly”.

As to `CC(=O)O[C@H]1C(=O)[C@@]2(C)[C@H]([C@H](OC(=O)c3ccccc3)[C@]3(O)C[C@H](OC(=O)[C@H](O)[C@@H](NC(=O)c4ccccc4)c4ccccc4)C(C)=C1C3(C)C)[C@]1(OC(C)=O)CO[C@@H]1C[C@@H]2O` [taxol, paclitaxel, reference compound], the GI50 in the data set on OVCA429TP (Homo sapiens) is 8480 nM; in the data set with OVCA429T (Homo sapiens), 15800 nM; in the data set on OVCA429 (Homo sapiens, OVCA429, pH 7.4), 147 nM.
